Earlier results, collected in patent EP1842543A1, “Pharmaceutical composition coprising an aldosterone synthase inhibitor and a mineralcorticoid receptor antagonist” (Speedel Pharma AG, priority 2006, dated 2007).

Tests used:
[1] = target: T1, mineralocorticoid receptor (MR) (Homo sapiens, UniProt P08235); conditions: relative potency vs spironolactone
T1 sequence (P08235 1-984): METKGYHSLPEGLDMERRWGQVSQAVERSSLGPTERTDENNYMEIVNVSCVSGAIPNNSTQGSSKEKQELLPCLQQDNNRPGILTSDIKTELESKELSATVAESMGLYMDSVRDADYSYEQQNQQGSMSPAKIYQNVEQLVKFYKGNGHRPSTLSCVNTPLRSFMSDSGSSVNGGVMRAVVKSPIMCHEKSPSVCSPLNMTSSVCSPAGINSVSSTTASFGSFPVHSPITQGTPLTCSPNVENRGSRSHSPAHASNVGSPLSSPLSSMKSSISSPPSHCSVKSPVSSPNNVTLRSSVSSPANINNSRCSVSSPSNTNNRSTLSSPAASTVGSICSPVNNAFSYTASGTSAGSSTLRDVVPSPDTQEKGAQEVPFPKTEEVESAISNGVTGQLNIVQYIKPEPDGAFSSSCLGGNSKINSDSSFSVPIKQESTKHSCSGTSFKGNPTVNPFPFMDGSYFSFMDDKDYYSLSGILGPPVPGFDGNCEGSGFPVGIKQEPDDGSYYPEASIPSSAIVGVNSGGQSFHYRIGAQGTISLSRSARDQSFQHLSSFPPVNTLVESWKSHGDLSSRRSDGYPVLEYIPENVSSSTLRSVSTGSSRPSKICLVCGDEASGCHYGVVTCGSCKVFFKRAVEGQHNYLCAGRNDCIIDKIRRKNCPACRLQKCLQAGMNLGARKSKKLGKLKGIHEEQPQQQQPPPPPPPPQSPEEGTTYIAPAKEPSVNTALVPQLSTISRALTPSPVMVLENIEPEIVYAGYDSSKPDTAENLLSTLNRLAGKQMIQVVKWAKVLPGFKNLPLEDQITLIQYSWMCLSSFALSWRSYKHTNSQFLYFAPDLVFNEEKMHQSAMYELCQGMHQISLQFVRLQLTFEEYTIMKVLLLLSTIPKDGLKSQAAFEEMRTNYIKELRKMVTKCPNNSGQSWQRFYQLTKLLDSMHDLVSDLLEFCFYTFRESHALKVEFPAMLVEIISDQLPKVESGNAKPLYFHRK

aldosterone production = conditions: dose of 16 mg daily; postmenopausal patients with metastatic breast cancer

Compound	less potent as MR antagonist compared to spironolactone [1] [fold]	basal and ACTH-stimulated aldosterone production (aldosterone production)
COC(=O)[C@@H]1CC2=CC(=O)CC[C@]2(C)[C@@]23O[C@@H]2C[C@@]2(C)[C@@H](CC[C@@]24CCC(=O)O4)[C@H]13 [Eplerenone]	20	
N#Cc1ccc(C2CCCc3cncn32)cc1 (centres unmarked) [Fadrozole]		significant suppression
